Results as given in patent US20260062443A1 (ALEXION PHARMACEUTICALS, INC., priority 2022, published 2026).

molecular target: T1, Human complement C1s enzyme (Homo sapiens, UniProt P09871); assay: Human C1s enzyme assay; type: biochemical; details: human complement C1s enzyme 1.16 nM, substrate Z-L-Lys-SBzl 100 μM, 5 min preincubation; read-out: IC50 (Stars), C1s Inhibiting Activity
T1 sequence (P09871 438-688 limits assumed): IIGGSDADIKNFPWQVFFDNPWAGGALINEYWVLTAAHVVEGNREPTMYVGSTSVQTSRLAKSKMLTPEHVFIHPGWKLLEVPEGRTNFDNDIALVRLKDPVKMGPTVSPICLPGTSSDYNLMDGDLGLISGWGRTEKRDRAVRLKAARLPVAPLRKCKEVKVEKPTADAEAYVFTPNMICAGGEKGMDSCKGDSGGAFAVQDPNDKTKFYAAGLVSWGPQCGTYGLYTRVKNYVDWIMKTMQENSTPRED
T1 sequence (P09871 16-437 partner limits assumed): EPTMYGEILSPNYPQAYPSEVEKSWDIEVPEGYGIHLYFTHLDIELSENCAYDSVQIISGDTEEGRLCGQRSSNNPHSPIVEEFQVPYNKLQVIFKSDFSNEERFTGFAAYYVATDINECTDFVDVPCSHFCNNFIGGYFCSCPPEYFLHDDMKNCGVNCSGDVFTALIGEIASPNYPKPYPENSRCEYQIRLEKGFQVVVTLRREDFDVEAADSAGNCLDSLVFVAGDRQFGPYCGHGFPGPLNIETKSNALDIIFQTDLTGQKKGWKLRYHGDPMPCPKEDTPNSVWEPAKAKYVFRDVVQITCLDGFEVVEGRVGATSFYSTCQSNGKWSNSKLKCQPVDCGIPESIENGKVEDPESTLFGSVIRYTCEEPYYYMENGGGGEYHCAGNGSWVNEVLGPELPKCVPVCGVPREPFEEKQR
Summary of the method: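 Serum-purified human C1s (1.16 nM final) preincubated 5 min at room temperature with compound in 50 mM Tris, 1 M NaCl, pH 7.5. Z-L-Lys-SBzl and DTNB added at 100 μM each; A405 followed every 30 s for 30 min, and IC50 obtained by nonlinear regression of reaction rates.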

IC50 | Structure (SMILES)
< 100 nM | O=C(NCC(=O)N1C[C@H](OC(F)F)C[C@H]1C(=O)NCc1cc2cnccc2[nH]1)c1ccc(Oc2ccccc2)cn1 [Compound 137, N-(2-((2S,4R)-2-(((1H-pyrrolo[3,2-c]pyridin-2-yl)methyl)carbamoyl)-4-(difluoromethoxy)pyrrolidin-1-yl)-2-oxoethyl)-5-phenoxypicolinamide]
< 100 nM | C[C@@H](NC(=O)[C@@H]1CC2(CN1C(=O)CNC(=O)c1cccc(Oc3ccc(F)cc3)c1)OCCO2)c1cc2cnccc2[nH]1 [Compound 240, (S)-N-((R)-1-(1H-pyrrolo[3,2-c]pyridin-2-yl)ethyl)-7-((3-(4-fluorophenoxy)benzoyl)glycyl)-1,4-dioxa-7-azaspiro[4.4]nonane-8-carboxamide]
> 1000 nM | C[C@@]12C[C@@H]1N(C(=O)CNC(=O)c1ccc3c(c1)Oc1ccccc1S3)[C@H](C(=O)NCc1ccc3c(c1)COB3O)C2 [Compound 279, (1S,3S,5S)-N-((1-hydroxy-1,3-dihydrobenzo[c][1,2]oxaborol-5-yl)methyl)-5-methyl-2-((phenoxathiine-3-carbonyl)glycyl)-2-azabicyclo[3.1.0]hexane-3-carboxamide]
< 100 nM | C[C@@]12C[C@@H]1N(C(=O)CNC(=O)c1ccc3c(c1)Oc1ccccc1S3)[C@H](C(=O)NCc1cc3c(s1)CNCC3)C2 [Compound 112, (1S,3S,5S)-5-methyl-2-((phenoxathiine-3-carbonyl)glycyl)-N-((4,5,6,7-tetrahydrothieno[2,3-c]pyridin-2-yl)methyl)-2-azabicyclo[3.1.0]hexane-3-carboxamide]
> 1000 nM | O=C(NCC(=O)N1CC2(C[C@H]1C(=O)NCc1cc3cc(Cl)ccc3[nH]1)OCCO2)c1ccc2c(c1)Oc1ccccc1S2 [Compound 19, (S)-N-((5-chloro-1H-indol-2-yl)methyl)-7-((phenoxathiine-3-carbonyl)glycyl)-1,4-dioxa-7-azaspiro[4.4]nonane-8-carboxamide]
< 100 nM | C[C@H]1C[C@@H](C(=O)N[C@H](C)c2cc3cnccc3[nH]2)N(C(=O)CNC(=O)c2ccc3c(c2)Oc2ccccc2S3)C1 [Compound 165, (2S,4S)-N-((R)-1-(1H-pyrrolo[3,2-c]pyridin-2-yl)ethyl)-4-methyl-1-((phenoxathiine-3-carbonyl)glycyl)pyrrolidine-2-carboxamide]
> 1000 nM | C[C@@]12C[C@@H]1N(C(=O)CNC(=O)CCCOc1ccccc1)[C@H](C(=O)NC1(c3ccc4c(c3)CNCC4)CC1)C2 [Compound 62, (1S,3S,5S)-5-methyl-2-((4-phenoxybutanoyl)glycyl)-N-(1-(1,2,3,4-tetrahydroisoquinolin-7-yl)cyclopropyl)-2-azabicyclo[3.1.0]hexane-3-carboxamide]
< 100 nM | O=C(NCC(=O)N1C[C@H](OC(F)F)C[C@H]1C(=O)NCc1cc2cnccc2[nH]1)c1cccc(Oc2ccccc2)c1 [Compound 127, (2S,4R)-N-((1H-pyrrolo[3,2-c]pyridin-2-yl)methyl)-4-(difluoromethoxy)-1-((3-phenoxybenzoyl)glycyl)pyrrolidine-2-carboxamide]
< 100 nM | O=C(NCC(=O)N1C[C@H](OC(F)F)C[C@H]1C(=O)NCc1cc2cnccc2[nH]1)c1ccc(F)c(Oc2ccsc2)c1 [Compound 317, (2S,4R)-4-(difluoromethoxy)-1-[2-[[4-fluoro-3-(3-thienyloxy)benzoyl]amino]acetyl]-N-(1H-pyrrolo[3,2-c]pyridin-2-ylmethyl)pyrrolidine-2-carboxamide]
> 1000 nM | C[C@@H](NC(=O)[C@@H]1C[C@](F)(CF)CN1C(=O)CNC(=O)c1ccc(Oc2ccc(F)cc2)cc1)c1cc2cnccc2[nH]1 [Compound 89, (2S,4R)-N-((R)-1-(1H-pyrrolo[3,2-c]pyridin-2-yl)ethyl)-4-fluoro-4-(fluoromethyl)-1-((4-(4-fluorophenoxy)benzoyl)glycyl)pyrrolidine-2-carboxamide]
< 100 nM | O=C(NCC(=O)N1CC2(C[C@H]1C(=O)NCc1cc3cnccc3s1)OCCO2)c1cccc(Oc2ccccc2)c1 [Compound 256, (S)-7-((3-phenoxybenzoyl)glycyl)-N-(thieno[3,2-c]pyridin-2-ylmethyl)-1,4-dioxa-7-azaspiro[4.4]nonane-8-carboxamide]

Further lines, the compound ahead of its results:

Structure (SMILES) | IC50
Cc1ccc2cc(C(=O)NCC(=O)N3CC4(C[C@H]3C(=O)NCc3cc5cnccc5[nH]3)OCCO4)sc2c1 [Compound 281, (S)-N-((1H-pyrrolo[3,2-c]pyridin-2-yl)methyl)-7-((6-methylbenzo[b]thiophene-2-carbonyl)glycyl)-1,4-dioxa-7-azaspiro[4.4]nonane-8-carboxamide] | 100 to 1000 nM
O=C(NCC(=O)N1C[C@H](OC(F)F)C[C@H]1C(=O)N[C@H](CO)c1cc2cnccc2[nH]1)c1ccc2c(c1)-c1ccccc1C2(F)F [Compound 103, (2S,4R)-1-((9,9-difluoro-9H-fluorene-3-carbonyl)glycyl)-4-(difluoromethoxy)-N-((S)-2-hydroxy-1-(1H-pyrrolo[3,2-c]pyridin-2-yl)ethyl) pyrrolidine-2-carboxamide] | 100 to 1000 nM
O=C(NCC(=O)N1C[C@H](OC(F)F)C[C@H]1C(=O)NCc1ccc2ncsc2c1)c1ccc2c(c1)Oc1ccccc1S2 [Compound 245, (2S,4R)-N-(benzo[d]thiazol-6-ylmethyl)-4-(difluoromethoxy)-1-((phenoxathiine-3-carbonyl)glycyl)pyrrolidine-2-carboxamide] | > 1000 nM
C[C@@H](NC(=O)[C@@H]1C[C@]2(C)C[C@@H]2N1C(=O)CNC(=O)c1ccc(Oc2ccccc2)cc1)c1cc(B(O)O)cs1 [Compound 163, (5-((R)-1-((1S,3S,5S)-5-methyl-2-((4-phenoxybenzoyl)glycyl)-2-azabicyclo[3.1.0]hexane-3-carboxamido)ethyl)thiophen-3-yl)boronic acid] | > 1000 nM
CC1c2ccccc2-c2cc(C(=O)NCC(=O)N3C[C@H](OC(F)F)C[C@H]3C(=O)NCc3cc4cnccc4[nH]3)ccc21 (stereo partly drawn) [Compound 302, (2S,4R)-N-((1H-pyrrolo[3,2-c]pyridin-2-yl)methyl)-4-(difluoromethoxy)-1-((9-methyl-9H-fluorene-3-carbonyl)glycyl) pyrrolidine-2-carboxamide] | < 100 nM
C[C@@H](NC(=O)[C@@H]1CC2(CN1C(=O)CNC(=O)c1ccc(-c3ccccc3)cn1)OCCO2)c1cc2cnccc2[nH]1 [Compound 114, (S)-N-((R)-1-(1H-pyrrolo[3,2-c]pyridin-2-yl)ethyl)-7-((5-phenylpicolinoyl)glycyl)-1,4-dioxa-7-azaspiro[4.4]nonane-8-carboxamide] | 100 to 1000 nM
C[C@@H](NC(=O)[C@@H]1C[C@](F)(CF)CN1C(=O)CNC(=O)c1ccc(-c2ccccc2)cc1)c1cc2cnccc2[nH]1 [Compound 84, (2S,4R)-N-((R)-1-(1H-pyrrolo[3,2-c]pyridin-2-yl)ethyl)-1-(([1,1′-biphenyl]-4-carbonyl)glycyl)-4-fluoro-4-(fluoromethyl)pyrrolidine-2-carboxamide] | > 1000 nM
O=C(NCc1cc2cnccc2[nH]1)[C@@H]1C[C@@H](OC(F)F)CN1C(=O)CN1Cc2ncc(-c3ccc(F)cc3F)cc2C1=O [Compound 135, (2S,4R)-N-((1H-pyrrolo[3,2-c]pyridin-2-yl)methyl)-4-(difluoromethoxy)-1-(2-(3-(2,4-difluorophenyl)-5-oxo-5,7-dihydro-6H-pyrrolo[3,4-b]pyridin-6-yl)acetyl)pyrrolidine-2-carboxamide] | > 1000 nM
C[C@@]12C[C@@H]1N(C(=O)CNC(=O)c1ccc3c(c1)Oc1ccccc1S3)[C@H](C(=O)NCc1ccc3nc(N)[nH]c3c1)C2 [Compound 181, (1S,3S,5S)-N-((2-amino-1H-benzo[d]imidazol-6-yl)methyl)-5-methyl-2-((phenoxathiine-3-carbonyl)glycyl)-2-azabicyclo[3.1.0]hexane-3-carboxamide] | < 100 nM
CC(C)S(=O)(=O)[C@@H]1C[C@@H](C(=O)N[C@H](C)c2cc3cnccc3[nH]2)N(C(=O)CNC(=O)c2ccc3c(c2)Oc2ccccc2S3)C1 [Compound 133, (2S,4R)-N-((R)-1-(1H-pyrrolo[3,2-c]pyridin-2-yl)ethyl)-4-(isopropylsulfonyl)-1-((phenoxathiine-3-carbonyl)glycyl)pyrrolidine-2-carboxamide] | < 100 nM
O=C(NCC(=O)N1CC2(C[C@H]1C(=O)NCc1cc3cncc(Cl)c3[nH]1)OCCO2)c1ccc2c(c1)Oc1ccccc1S2 [Compound 53, (S)-N-((7-chloro-1H-pyrrolo[3,2-c]pyridin-2-yl)methyl)-7-((phenoxathiine-3-carbonyl)glycyl)-1,4-dioxa-7-azaspiro[4.4]nonane-8-carboxamide] | > 1000 nM
O=C(NCC(=O)N1CC2(C[C@H]1C(=O)NCc1cc3cnccc3[nH]1)OCCO2)c1ccc(-c2ccccc2)cc1 [Compound 17, (S)-N-((1H-pyrrolo[3,2-c]pyridin-2-yl)methyl)-7-(([1,1′-biphenyl]-4-carbonyl)glycyl)-1,4-dioxa-7-azaspiro[4.4]nonane-8-carboxamide] | < 100 nM
